This is an account of results in US8471032B2, “Benzimidazole compound in crystal form and salt thereof” (Mitsubishi Tanabe Pharma Corporation, priority 2008, dated 2013).

Series [1] can be described thus: Water adsorption measurement (DVS-1 water adsorption apparatus), index of hygroscopicity. Format: physicochemical. As to conditions: relative humidity changed within 0% to 95%; amount of change based on the weight at relative humidity 0%. Here is the method: The water adsorption measurement, which becomes an index of hygroscopicity, was performed using a DVS-1 type water adsorption apparatus (manufactured by SMS) under the following conditions. Using a sample (about 6-12 mg), the relative humidity was changed within the relative humidity range of 0% to 95%. The weight change was recorded for each predetermined relative humidity, and converted to the amount of change (%) based on the weight at relative humidity 0%. […] As to this compound, the zero point was amended based on the moisture value of the sample measured by the Karl Fischer's method, and the weight change was converted to the amount of change (%).

The nature of series [2]: Solubility in water at 37° C. (HPLC, calibration curve method). The class given is physicochemical. As to conditions: shaken for 4 hr. Here is the method: The solubility of the obtained compounds in water at 37° C. was measured under the following conditions. An adequate amount of each sample was taken, water was added to each sample, and the mixture was shaken at 37° C. for 4 hr. The supernatant was filtered through a filter, and diluted with a mixed solution of TFA/acetonitrile/water=(0.05:30:70) as necessary to give a sample solution. The concentration (mg/ml) of the sample solution was measured by high performance liquid chromatography (HPLC) with a calibration curve method, and taken as the solubility in water at 37° C.
apparatus: HPLC System Class-VP (SHIMADZU Corporation)
detector: photodiode array detector
measurement wavelength range: 200-370 nm
column: Inertsil ODS-3V (4.6 mm9×150 mm)
column temperature: 40° C.
mobile phase: SOLUTION A 0.05% aqueous trifluoroacetic acid solution • SOLUTION B 0.05% trifluoroacetic acid-acetonitrile solution • A:B=70:30 (Isocratic Elution)

SMILES strings stand for the structures. Values after ≈ are worked out from the molar mass of the structure shown.

In the case of `CNC(=O)Cn1c(=O)n(C2CCN([C@@H]3Cc4cccc5cccc3c45)CC2)c2ccccc21` [Example 10, (R)-2-{3-[1-(acenaphthen-1-yl)piperidin-4-yl]-2,3-dihydro-2-oxo-benzimidazol-1-yl}-N-methylacetamide], in series [1], the “weight increase (water adsorption / moisture absorption)” value is 1.3%. The same molecule gave a solubility in water in series [2] of 300 µg/mL (≈ 681 µM).

As for `CNC(=O)Cn1c(=O)n(C2CCN([C@@H]3Cc4cccc5cccc3c45)CC2)c2ccccc21` [Example 8, (R)-2-{3-[1-(acenaphthen-1-yl)piperidin-4-yl]-2,3-dihydro-2-oxo-benzimidazol-1-yl}-N-methylacetamide], the “weight increase (water adsorption / moisture absorption)” value in series [1] amounted to 2.0%.

On to `CNC(=O)Cn1c(=O)n(C2CCN([C@@H]3Cc4cccc5cccc3c45)CC2)c2ccccc21` [Example 6, (R)-2-{3-[1-(acenaphthen-1-yl)piperidin-4-yl]-2,3-dihydro-2-oxo-benzimidazol-1-yl}-N-methylacetamide], for which the “weight increase (water adsorption / moisture absorption)” value in series [1] is reported as 0.4%. In series [2], this molecule yielded a solubility in water greater than 2000 µg/mL.

As to `CNC(=O)Cn1c(=O)n(C2CCN([C@@H]3Cc4cccc5cccc3c45)CC2)c2ccccc21` [Example 17, (R)-2-{3-[1-(acenaphthen-1-yl)piperidin-4-yl]-2,3-dihydro-2-oxo-benzimidazol-1-yl}-N-methylacetamide], in series [2], the solubility in water is 10 µg/mL (≈ 22.7 µM).

With `CNC(=O)Cn1c(=O)n(C2CCN([C@@H]3Cc4cccc5cccc3c45)CC2)c2ccccc21` [Example 16, (R)-2-{3-[1-(acenaphthen-1-yl)piperidin-4-yl]-2,3-dihydro-2-oxo-benzimidazol-1-yl}-N-methylacetamide], the solubility in water in series [2] came out at 10 µg/mL (≈ 22.7 µM).

On to `CNC(=O)Cn1c(=O)n(C2CCN([C@@H]3Cc4cccc5cccc3c45)CC2)c2ccccc21` [Example 2, (R)-2-{3-[1-(acenaphthen-1-yl)piperidin-4-yl]-2,3-dihydro-2-oxo-benzimidazol-1-yl}-N-methylacetamide], for which the “weight increase (water adsorption / moisture absorption)” value in series [1] was determined as 0.2%.

Take `CNC(=O)Cn1c(=O)n(C2CCN([C@@H]3Cc4cccc5cccc3c45)CC2)c2ccccc21` [Example 1, (R)-2-{3-[1-(acenaphthen-1-yl)piperidin-4-yl]-2,3-dihydro-2-oxo-benzimidazol-1-yl}-N-methylacetamide]: the “weight increase (water adsorption / moisture absorption)” value in series [1] came to 0.2%. Besides, in series [2], the solubility in water is greater than 2000 µg/mL.
